In patent US9000175B2, “Bicyclic GPR119 modulators” (Lupin Limited, priority 2010, dated 2015):
pEC50: −log10 of the molar value. “And” between values parts separate entries of the source, which are not always exact repeats. Equal values may be shown once.

target: T1, human GPR119 (Homo sapiens, UniProt Q8TDV5); test: Cyclic AMP assay in stable cell line; format: cell-based; conditions: CHO-K1 cells stably transfected with human GPR119; cAMP levels (FRET, cAMP femto kit); 1 h at 37° C; read-out: EC50 Range
T1 construct: expressed in transfected cells
T1 sequence (Q8TDV5 1-335): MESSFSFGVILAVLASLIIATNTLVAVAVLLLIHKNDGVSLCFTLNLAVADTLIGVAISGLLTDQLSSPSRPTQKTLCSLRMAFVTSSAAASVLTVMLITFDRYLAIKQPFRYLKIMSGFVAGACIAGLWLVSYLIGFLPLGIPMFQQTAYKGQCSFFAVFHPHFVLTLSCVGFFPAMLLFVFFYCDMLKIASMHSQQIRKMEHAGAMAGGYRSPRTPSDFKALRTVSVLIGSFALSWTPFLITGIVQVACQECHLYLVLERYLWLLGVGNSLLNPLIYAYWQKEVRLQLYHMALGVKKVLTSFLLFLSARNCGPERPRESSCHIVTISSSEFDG
Procedure: Cyclic AMP Assay in Stable Cell Line:
Chinese Hamster Ovary (CHO-K1) cells were stably transfected with human GPR119 and were maintained in Ham's F-12 complete medium containing 10% heat inactivated FBS (Sigma, UK). The cells were maintained under a selection pressure with 500 μg/ml G418 (GENETICIN). Stable clones were analyzed for functional cAMP response to OEA (oleoylethanolamide).
To estimate activation of GPR119 and induction of cAMP levels by GPR119 agonists, cells were serum starvation for 18-24 h, trypsinized and seeded in 96 well plates at a, density of 7500 cells/well. The cells were then treated with test compounds diluted in serum free Ham's F12 for 1 h at 37° C. The cAMP levels were measured by using the cAMP femto kit (CisBio) by following the manufacturer's instructions. Following treatment with a test compound, the cells were lysed and cAMP levels were estimated by adding D2-labelled cAMP and europium-cryptate conjugated anti-cAMP antibody. Close proximity of D2 and cryptate results in FRET and the subsequent fluorescence that is measured at 665 and 620 nm. The FRET response is calculated as the ratio of fluorescence at 665 to fluorescence at 620 nm. The unlabelled cAMP produced as a result of GPR119 activation/agonism competes with the D2-cAMP leading to a decrease in the FRET signal. Thus the FRET signal is inversely proportional to the amount of cAMP produced by the treated cells. In a separate set of wells, known concentrations of cAMP were added in order to get a standard linear curve for extrapolation of the cAMP values in the unknown/test samples. Fluorescence was measured on BMG Labtech PHERAstar machine.
The concentration of compound required to stimulate a half-maximal response (EC50) was determined using the GraphPad Prism software.
The compounds prepared were tested using the above assay procedure and the results obtained are given below.

Row | pEC50 | Compound
1 | > 7.30 | CCc1cnc(N2CCC(Oc3ccc(-n4ccc5cc(CNC(=O)C(C)C)ccc54)nc3)CC2)nc1 [Example-98, N-((1-(5-((1-(5-Ethylpyrimidin-2-yl)piperidin-4-yl)oxy)pyridin-2-yl)-1H-indol-5-yl)methyl)isobutyramide]
2 | 6.60 to 7.30 | CC(C)OC(=O)N1CCC(Oc2ccc(-n3ccc4cc(C(=O)N5CCCC5)ccc43)nc2)CC1 [Example-70, Isopropyl 4-((6-(5-(pyrrolidine-1-carbonyl)-1H-indol-1-yl)pyridin-3-yl)oxy)piperidine-1-carboxylate]
3 | > 7.30 | CCOC(=O)Nc1ccc2c(ccn2-c2ccc(OC3CCN(c4nc(C(C)C)no4)CC3)cn2)c1 [Example-141, Ethyl(1-(5-((1-(3-isopropyl-1,2,4-oxadiazol-5-yl)piperidin-4-yl)oxy)pyridin-2-yl)-1H-indol-5-yl)carbamate]
4 | 6.00 to 6.60 | Cc1noc(N2CCC(OCc3ccc(-n4ccc5cc(S(C)(=O)=O)ccc54)nc3)CC2)n1 [Example-112, 3-Methyl-5-(4-((6-(5-(methylsulfonyl)-1H-indol-1-yl)pyridin-3-yl)methoxy)piperidin-1-yl)-1,2,4-oxadiazole]
5 | > 7.30 and 6.60 to 7.30 | CN(C)C(=O)c1ccc2c(ccn2-c2ccc(OCC3CCN(C(=O)OC(C)(C)C)CC3)cn2)c1 [Example-45, tert-butyl 4-(((6-(5-(dimethylcarbamoyl)-1H-indol-1-yl)pyridin-3-yl)oxy)methyl)piperidine-1-carboxylate]
6 | > 7.30 | CC(C)C(=O)Nc1ccc2c(ccn2-c2ccc(OC3CCN(C(=O)C(C)C)CC3)cn2)c1 [Example-127, N-(1-(5-((1-Isobutyrylpiperidin-4-yl)oxy)pyridin-2-yl)-1H-indol-5-yl) isobutyramide]
7 | 6.60 to 7.30 | CC(C)(C)OC(=O)N1CCC(Oc2ccc(-n3ccc4cc(C(=O)NCCO)ccc43)nc2)CC1 [Example-76, tert-Butyl-4-((6-(5-((2-hydroxyethyl)carbamoyl)-1H-indol-1-yl)-pyridin-3-yl)oxy)piperidine-1-carboxylate]
8 | 6.60 to 7.30 | CCOC(=O)N1CCC(Oc2ccc(-n3ccc4cc(N5CCCC5=O)ccc43)nc2)CC1 [Example-182, Ethyl 4-((6-(5-(2-oxopyrrolidin-1-yl)-1H-indol-1-yl)pyridin-3-yl)oxy) piperidine-1-carboxylate]
9 | 6.60 to 7.30 | CCc1cnc(N2CCC(Oc3ccc(-n4ccc5cc(OC)cnc54)nc3)CC2)nc1 [Example-157, 1-(5-((1-(5-Ethylpyrimidin-2-yl)piperidin-4-yl)oxy)pyridin-2-yl)-5-methoxy-1H-pyrrolo[2,3-b]pyridine]
10 | 6.00 to 6.60 | CC(C)OC(=O)N1CCC(Oc2ccc(-n3ccc4cc(N5CCOC5=O)ccc43)nc2)CC1 [Example-166, Isopropyl 4-((6-(5-(2-oxooxazolidin-3-yl)-1H-indol-1-yl)pyridin-3-yl)oxy)piperidine-1-carboxylate]
11 | 6.60 to 7.30 | CC(C)OC(=O)N1CCC(OCc2ccc(-n3ccc4cc(S(C)(=O)=O)ccc43)nc2)CC1 [Example-108, Isopropyl 4-((6-(5-(methylsulfonyl)-1H-indol-1-yl)pyridin-3-yl)methoxy)piperidine-1-carboxylate]
12 | 6.00 to 6.60 | CCc1cnc(N2CCC(Oc3ccc(-n4ccc5cc(C#N)ccc54)nc3)CC2)nc1 [Example-58, 1-(5-((1-(5-Ethylpyrimidin-2-yl)piperidin-4-yl)oxy)pyridin-2-yl)-1H-indole-5-carbonitrile]
13 | 6.00 to 6.60 | CC(C)c1noc(CN2CCC(Oc3ccc(-n4ccc5cc(C(=O)N(C)C)ccc54)nc3)CC2)n1 [Example-84]
14 | > 7.30 | CC(C)(C)OC(=O)N1CCC(OCc2ccc(N3CCc4cc(S(C)(=O)=O)ccc43)nc2)CC1 [Example-46, tert-Butyl-4-((6-(5-(methylsulfonyl)indolin-1-yl)pyridin-3-yl)methoxy) piperidine-1-carboxylate]
15 | 6.60 to 7.30 | Cc1noc(N2CCC(Oc3ccc(-n4ccc5cc(S(=O)(=O)C(C)C)ccc54)nc3)CC2)n1 [Example-18, 5-(4-((6-(5-(Isopropylsulfonyl)-1H-indol-1-yl)pyridin-3-yl)oxy)piperidin-1-yl)-3-methyl-1,2,4-oxadiazole]
16 | 6.60 to 7.30 | CC(C)NC(=O)c1ccc2c(ccn2-c2ccc(OC3CCN(C(=O)OC(C)(C)C)CC3)cn2)c1 [Example-62, tert-Butyl-4-((6-(5-(isopropylcarbamoyl)-1H-indol-1-yl)pyridin-3-yl)oxy) piperidine-1-carboxylate]
17 | > 7.30 | CCc1cnc(N2CCC(Oc3ccc(-n4ccc5cc(C(=O)N6CCCC6)ccc54)nc3)CC2)nc1 [Example-71, (1-(5-((1-(5-Ethylpyrimidin-2-yl)piperidin-4-yl)oxy)pyridin-2-yl)-1H-indol-5-yl)(pyrrolidin-1-yl)methanone]
18 | > 7.30 | CC(C)c1noc(CN2CCC(Oc3ccc(-n4ccc5cc(S(C)(=O)=O)ccc54)nc3)CC2)n1 [Example-80, 3-Isopropyl-5-((4-((6-(5-(methylsulfonyl)-1H-indol-1-yl)pyridin-3-yl)oxy)piperidin-1-yl)methyl)-1,2,4-oxadiazole]
19 | 6.00 to 6.60 | CCc1cnc(N2CCC(OCc3ccc(N4CCc5cc(S(C)(=O)=O)ccc54)nc3)CC2)nc1 [Example-113, 1-(5-(((1-(5-Ethylpyrimidin-2-yl)piperidin-4-yl)oxy)methyl)pyridin-2-yl)-5-(methylsulfonyl)indoline]
20 | > 7.30 | CC(C)OC(=O)N1CCC(Oc2ccc(-n3ccc4cc(C(=O)N(C)C)ccc43)nc2)CC1 [Example-74, Isopropyl 4-((6-(5-(dimethylcarbamoyl)-1H-indol-1-yl)pyridin-3-yl)oxy) piperidine-1-carboxylate]
21 | 6.60 to 7.30 | CCOC(=O)N1CCC(Oc2ccc(-n3ccc4cc(S(C)(=O)=O)ccc43)nc2)CC1 [Example-185, Ethyl-4-((6-(5-(methylsulfonyl)-1H-indol-1-yl)pyridin-3-yl)oxy)-piperidine-1-carboxylate]
22 | 6.00 to 6.60 | CC(C)(C)OC(=O)N1CCC(Oc2ccc(-n3ccc4cc(CO)ccc43)nc2)CC1 [Example-94, tert-Butyl-4-((6-(5-(hydroxymethyl)-1H-indol-1-yl)pyridin-3-yl)oxy)piperidine-1-carboxylate]
23 | 6.00 to 6.60 | CCOC(=O)N1CCC(Oc2ccc(-n3ccc4cc(-n5cncn5)ccc43)nc2)CC1 [Example-192, Ethyl-4-((6-(5-(1H-1,2,4-triazol-1-yl)-1H-indol-1-yl)pyridin-3-yl)oxy) piperidine-1-carboxylate]
24 | 6.60 to 7.30 | Cc1noc(N2CCC(Oc3ccc(-n4ccc5cc(S(C)(=O)=O)ccc54)nc3)CC2)n1 [Example-92, 3-Methyl-5-(4-((6-(5-(methylsulfonyl)-1H-indol-1-yl)pyridin-3-yl)oxy)piperidin-1-yl)-1,2,4-oxadiazole]
25 | 6.60 to 7.30 | CNC(=O)c1ccc2c(ccn2-c2ccc(OCC3CCN(C(=O)OC(C)(C)C)CC3)cn2)c1 [Example-66, tert-Butyl-4-(((6-(5-(methylcarbamoyl)-1H-indol-1-yl)pyridin-3-yl)-oxy)methyl)piperidine-1-carboxylate]
26 | > 7.30 | CCc1cnc(N2CCC(Oc3ccc(-n4ccc5cc(S(C)(=O)=O)ccc54)nc3)CC2)nc1 [Example-2, 1-(5-((1-(5-Ethylpyrimidin-2-yl)piperidin-4-yl)oxy)pyridin-2-yl)-5-(methylsulfonyl)-1H-indole]
27 | 6.60 to 7.30 | CCc1cnc(N2CCC(Oc3ccc(-n4ccc5cc(-c6nc(C)no6)ccc54)nc3)CC2)nc1 [Example-103, 5-(1-(5-((1-(5-Ethylpyrimidin-2-yl)piperidin-4-yl)oxy)pyridin-2-yl)-1H-indol-5-yl)-3-methyl-1,2,4-oxadiazole]
28 | > 7.30 | CC(C)(F)CN1CCC(Oc2ccc(-n3ccc4cc(S(C)(=O)=O)ccc43)nc2)CC1 [Example-14, 1-(5-((1-(2-Fluoro-2-methylpropyl)piperidin-4-yl)oxy)pyridin-2-yl)-5-(methylsulfonyl)-1H-indole]
29 | 6.00 to 6.60 and 6.60 to 7.30 | CC(C)NC(=O)c1ccc2c(ccn2-c2ccc(OC3CCN(C(=O)OC(C)C)CC3)cn2)c1 [Example-72, Isopropyl 4-((6-(5-(isopropylcarbamoyl)-1H-indol-1-yl)pyridin-3-yl)oxy) piperidine-1-carboxylate]
30 | > 7.30 | CC(C)(C)OC(=O)N1CC2COCC(C1)C2Oc1ccc(-n2ccc3cc(S(C)(=O)=O)ccc32)nc1 (stereo not drawn) [Example-49, (anti) tert-Butyl-9-((6-(5-(methylsulfonyl)-1H-indol-1-yl)pyridin-3-yl)oxy)-3-oxa-7-azabicyclo[3.3.1]nonane-7-carboxylate]
